Molecular target: human recombinant LRRK2 protein (Homo sapiens (Human), UniProt Q5S007)
Test: LRRK2 Kinase Activity Assay (ADP-Glo)
Assay type: biochemical
Settings: LRRK2 wt; LRRKtide peptide and ATP substrates; 1h-incubation at 37° C.
Procedure, shortened: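 Recombinant human LRRK2 acted on LRRKtide peptide and ATP for 1 h at 37 °C. ADP formed was detected by ADP-Glo luminescence (ATP depletion, then ADP-to-ATP conversion and luciferase). IC50s came from curve fits over 10 concentrations (N=2).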

Chain of human recombinant LRRK2 protein (Q5S007 whole entry): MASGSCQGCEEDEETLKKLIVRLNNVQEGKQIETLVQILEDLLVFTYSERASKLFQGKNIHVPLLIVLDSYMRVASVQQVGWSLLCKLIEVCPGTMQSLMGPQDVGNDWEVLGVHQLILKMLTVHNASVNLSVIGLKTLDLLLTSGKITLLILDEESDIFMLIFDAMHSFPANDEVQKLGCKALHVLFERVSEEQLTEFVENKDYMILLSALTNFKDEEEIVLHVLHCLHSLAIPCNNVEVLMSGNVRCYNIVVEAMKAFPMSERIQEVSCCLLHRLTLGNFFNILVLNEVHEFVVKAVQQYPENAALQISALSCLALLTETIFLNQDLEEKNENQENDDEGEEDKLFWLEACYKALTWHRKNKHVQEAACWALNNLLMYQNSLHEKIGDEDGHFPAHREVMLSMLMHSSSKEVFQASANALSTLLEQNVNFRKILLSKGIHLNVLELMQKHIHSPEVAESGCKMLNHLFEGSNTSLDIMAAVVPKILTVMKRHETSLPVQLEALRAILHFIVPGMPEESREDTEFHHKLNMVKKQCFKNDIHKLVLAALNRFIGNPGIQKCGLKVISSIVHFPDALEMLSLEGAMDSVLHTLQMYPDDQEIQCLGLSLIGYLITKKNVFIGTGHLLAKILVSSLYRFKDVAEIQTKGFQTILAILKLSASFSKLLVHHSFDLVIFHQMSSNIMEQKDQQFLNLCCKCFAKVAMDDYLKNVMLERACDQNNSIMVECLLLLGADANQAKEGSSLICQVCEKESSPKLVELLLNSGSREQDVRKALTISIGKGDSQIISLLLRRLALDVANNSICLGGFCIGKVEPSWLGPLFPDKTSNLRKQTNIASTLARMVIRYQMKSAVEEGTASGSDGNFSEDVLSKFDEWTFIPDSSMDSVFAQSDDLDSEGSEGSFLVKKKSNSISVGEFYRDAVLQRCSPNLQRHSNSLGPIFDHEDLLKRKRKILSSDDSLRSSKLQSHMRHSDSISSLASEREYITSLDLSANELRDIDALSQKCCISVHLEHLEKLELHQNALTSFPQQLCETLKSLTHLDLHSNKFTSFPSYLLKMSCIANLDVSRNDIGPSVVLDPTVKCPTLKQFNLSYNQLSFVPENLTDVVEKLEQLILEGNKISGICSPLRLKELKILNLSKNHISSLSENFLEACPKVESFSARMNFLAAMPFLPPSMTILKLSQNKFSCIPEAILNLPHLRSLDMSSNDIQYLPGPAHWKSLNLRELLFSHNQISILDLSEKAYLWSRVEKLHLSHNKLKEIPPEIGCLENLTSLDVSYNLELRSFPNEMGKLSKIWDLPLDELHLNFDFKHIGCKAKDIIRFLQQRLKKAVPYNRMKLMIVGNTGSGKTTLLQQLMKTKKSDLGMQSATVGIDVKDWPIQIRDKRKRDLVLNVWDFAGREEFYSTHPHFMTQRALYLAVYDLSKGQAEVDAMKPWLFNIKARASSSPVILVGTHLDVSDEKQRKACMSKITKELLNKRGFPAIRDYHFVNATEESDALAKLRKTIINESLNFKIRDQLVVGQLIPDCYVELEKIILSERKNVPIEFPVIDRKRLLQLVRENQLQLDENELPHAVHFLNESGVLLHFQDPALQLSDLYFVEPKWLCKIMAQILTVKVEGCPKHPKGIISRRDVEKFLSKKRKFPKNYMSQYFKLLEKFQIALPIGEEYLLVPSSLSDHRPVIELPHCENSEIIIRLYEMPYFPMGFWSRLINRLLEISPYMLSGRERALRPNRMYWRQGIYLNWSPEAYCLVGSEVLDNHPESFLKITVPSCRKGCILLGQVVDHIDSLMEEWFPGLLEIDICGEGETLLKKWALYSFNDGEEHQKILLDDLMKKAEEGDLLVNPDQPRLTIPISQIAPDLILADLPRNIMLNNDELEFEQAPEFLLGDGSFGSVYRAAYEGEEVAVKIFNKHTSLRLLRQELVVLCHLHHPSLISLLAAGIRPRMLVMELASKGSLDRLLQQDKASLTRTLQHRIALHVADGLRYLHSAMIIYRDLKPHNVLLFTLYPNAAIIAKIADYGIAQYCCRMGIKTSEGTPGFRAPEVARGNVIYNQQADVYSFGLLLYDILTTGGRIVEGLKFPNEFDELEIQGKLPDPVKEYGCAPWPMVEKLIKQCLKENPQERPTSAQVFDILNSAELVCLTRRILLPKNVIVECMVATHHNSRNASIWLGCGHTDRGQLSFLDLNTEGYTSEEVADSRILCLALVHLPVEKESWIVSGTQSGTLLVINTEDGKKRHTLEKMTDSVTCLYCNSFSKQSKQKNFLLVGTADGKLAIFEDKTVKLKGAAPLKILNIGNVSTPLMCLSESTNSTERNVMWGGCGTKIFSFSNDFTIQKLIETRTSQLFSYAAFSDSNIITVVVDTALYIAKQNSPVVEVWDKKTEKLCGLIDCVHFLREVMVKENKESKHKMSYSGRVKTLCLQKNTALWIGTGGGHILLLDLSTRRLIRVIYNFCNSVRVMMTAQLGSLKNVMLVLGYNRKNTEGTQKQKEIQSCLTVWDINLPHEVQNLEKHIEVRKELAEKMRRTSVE

Structure (SMILES)	IC50 [nM]
C[C@@H]1CCNC(=O)OCCC2=NC=C(S2)c2n[nH]c3ccc(cc23)O1 [Example 160, (13R)-13-methyl-8,14-dioxa-23-thia-4,10,19,20-tetraazatetracyclo[13.5.2.1^2,5.0^18,21]tricosa-1(20),2,4,15,17,21-hexaen-9-one]	< 10
COc1cc2cc(c1F)C(C)OC(=O)NCCCOc1ccc3[nH]nc-2c3c1 (stereo not shown) [Example 95, 5-fluoro-4-methoxy-7-methyl-8,14-dioxa-10,19,20-triazatetracyclo[13.5.2.1^2,6.0^18,21]tricosa-1(20),2(23),3,5,15(22),16,18(21)-heptaen-9-one]	< 10
COc1cc2cc(c1)-c1n[nH]c3ccc(cc13)OCCCNC(=O)OC2 [Example 8, 4-methoxy-8,14-dioxa-10,19,20-triazatetracyclo[13.5.2.1^2,6.0^18,21]tricosa-1(20),2,4,6(23),15,17,21-heptaen-9-one]	< 10
O=C1NCCCOc2ccc3[nH]nc(c3c2)-c2cc(cc(C3=CCNCC3)c2)CO1 [Example 82, 4-(1,2,3,6-tetrahydropyridin-4-yl)-8,14-dioxa-10,19,20-triazatetracyclo[13.5.2.1^2,6.0^18,21]tricosa-1(20),2(23),3,5,15(22),16,18(21)-heptaen-9-one]	< 10
C[C@@H]1CCNC(=O)OCc2nccc(n2)-c2n[nH]c3ccc(cc23)O1 [Example 105, (13R)-13-methyl-8,14-dioxa-5,10,19,20,23-pentaazatetracyclo[13.5.2.1^2,6.0^18,21]tricosa-1(20),2,4,6(23),15,17,21-heptaen-9-one]	< 10
CC(C)N1CCCOc2ccc3[nH]nc(c3c2)-c2cncc(c2)COC1=O [Example 6, 10-(propan-2-yl)-8,14-dioxa-4,10,19,20-tetraazatetracyclo[13.5.2.1^2,6.0^18,21]tricosa-1(20),2,4,6(23),15,17,21-heptaen-9-one]	10 to 100
O=C1NC[C@@H](F)COc2ccc3[nH]nc(c3c2)-c2cccc(c2)CO1 [Example 168, (12R)-12-fluoro-8,14-dioxa-10,19,20-triazatetracyclo[13.5.2.1^2,6.0^8211]tricosa-1(20),2(23),3,5,15(22),16,18(21)-heptaen-9-one]	< 10
O=C1NCCCOc2ccc3[nH]nc(c3c2)-c2cccc(c2)CO1 [Example 5, 8,14-dioxa-10,19,20-triazatetracyclo[13.5.2.1^2,6.0^18,21]tricosa-1(20),2,4,6(23), 15,17,21-heptaen-9-one]	< 10
C[C@@H]1CCNC(=O)OCc2cccc(c2)-c2n[nH]c3c(F)cc(cc23)O1 [Example 153, (13R)-17-fluoro-13-methyl-8,14-dioxa-10,19,20-triazatetracyclo[13.5.2. 1^2,6.0^18,21]tricosa-1(20),2(23),3,5,15(22),16,18(21)-heptaen-9-one]	< 10
CC1OC(=O)NCCCOc2ccc3[nH]nc(c3c2)-c2cccc1n2 (stereo not shown) [Example 111, 7-methyl-8,14-dioxa-10,19,20,23-tetraazatetracyclo[13.5.2.1^2,6.0^18,21]tricosa-1(20),2,4,6(23),15,17,21-heptaen-9-one]	10 to 100
O=C1NCCCOc2ccc3[nH]nc(c3c2)-c2cnn(n2)CCO1 [Example 166, 8,14-dioxa-4,5,10,19,20,23-hexaazatetracyclo[13.5.2.1^2,5.0^18,21]tricosa-1(20),2(23),3,15(22),16,18(21)-hexaen-9-one]	< 10
COCCOc1cc2cc(c1)-c1n[nH]c3ccc(cc13)OCCCNC(=O)OC2 [Example 70, 4-(2-methoxyethoxy)-8,14-dioxa-10,19,20-triazatetracyclo[13.5.2.1^2,6.0^18,21]tricosa-1(20),2,4,6(23),15,17,21-heptaen-9-one]	< 10
O=C1NCCCOc2ccc3[nH]nc(c3c2)-c2cc(cc(OCCN3CCOCC3)c2)CO1 [Example 66, 4-[2-(morpholin-4-yl)ethoxy]-8,14-dioxa-10,19,20-triazatetracyclo[13.5.2.1^2,6.0^18,21]tricosa-1(20),2(23),3,5,15(22),16,18(21)-heptaen-9-one]	< 10
Cc1c(F)cc2cc1COC(=O)NCCCOc1ccc3[nH]nc-2c3c1 [Example 28, 4-fluoro-5-methyl-8,14-dioxa-10,19,20-triazatetracyclo[13.5.2.1^2,6.0^18,21]tricosa-1(20),2,4,6(23),15,17,21-heptaen-9-one]	< 10
COC1CN(c2cc3cc(c2)-c2n[nH]c4ccc(cc24)OCCCNC(=O)OC3)C1 [Example 32, 4-(3-methoxyazetidin-1-yl)-8,14-dioxa-10,19,20-triazatetracyclo[13.5.2.1^2,6.0^18,21]tricosa-1(20),2,4,6(23),15,17,21-heptaen-9-one]	< 10
COCCC1CCN(c2cc3cc(c2)-c2n[nH]c4ccc(cc24)OCCCNC(=O)OC3)CC1 [Example 23, 4-[4-(2-methoxyethyl)piperidin-1-yl]-8,14-dioxa-10,19,20-triazatetracyclo[13.5.2.1^2,6.0^18,21]tricosa-1(20),2,4,6(23),15,17,21-heptaen-9-one]	< 10

Structure (SMILES)	IC50 [nM]
O=C1NCCCOc2ccc3[nH]nc(c3c2)-c2cc(cc(N3CC[C@H](O)C3)c2)CO1 [Example 59, 4-[(3S)-3-hydroxypyrrolidin-1-yl]-8,14-dioxa-10,19,20-triazatetracyclo[13.5.2.1^2,6.0^18,21]tricosa-1(20),2,4,6(23),15,17,21-heptaen-9-one]	< 10
CC1CCCN1c1cc2cc(c1)-c1n[nH]c3ccc(cc13)OCCCNC(=O)OC2 (stereo not shown) [Example 76, 4-(2-methylpyrrolidin-1-yl)-8,14-dioxa-10,19,20-triazatetracyclo[13.5.2.1^2,6.0^18,21]tricosa-1(20),2(23),3,5,15(22),16,18(21)-heptaen-9-one]	< 10
C[C@@H]1CCNC(=O)OCc2cccc(c2F)-c2n[nH]c3ccc(cc23)O1 [Example 120, (13R)-23-fluoro-13-methyl-8,14-dioxa-10,19,20-triazatetracyclo[13.5.2.1^2,6.0^18,21]tricosa-1(20),2,4,6(23),15,17,21-heptaen-9-one]	100 to 1000
O=C1NCCCOc2ccc3[nH]nc(c3c2)-c2cnn(c2)C(C2CC2)CO1 (stereo not shown) [Example 103, 6-cyclopropyl-8,14-dioxa-4,5,10,19,20-pentaazatetracyclo[13.5.2.1^2,5.0^18,21]tricosa-1(20),2(23),3,15(22),16,18(21)-hexaen-9-one]	< 10
O=C1NCCCOc2ccc3[nH]nc(c3c2)-c2ccc(N3CCCC3=O)c(c2)CO1 [Example 75, 5-(2-oxopyrrolidin-1-yl)-8,14-dioxa-10,19,20-triazatetracyclo[13.5.2. 1^2,6.0^18,21]tricosa-1(20),2(23),3,5,15(22),16,18(21)-heptaen-9-one]	< 10
C[C@@H]1CCNC(=O)O[C@H](C)c2cccc(c2)-c2n[nH]c3ccc(cc23)O1 [Example 96, (7R,13R)-7,13-dimethyl-8,14-dioxa-10,19,20-triazatetracyclo[13.5.2.1^2,6.0^18,21]tricosa-1(20),2(23),3,5,15(22),16,18(21)-heptaen-9-one]	< 10
C[C@H]1OC(=O)NCCCOc2ccc3[nH]nc(c3c2)-c2cc(F)cc1c2 (single isomer, unassigned) [Example 108, (7R)- or (7S)-4-fluoro-7-methyl-8,14-dioxa-10,19,20-triazatetracyclo[13.5.2.1^2,6.0^18,21]tricosa-1(20),2,4,6(23),15,17,21-heptaen-9-one]	10 to 100
O=C1NCCCOc2ccc3[nH]nc(c3c2)-c2csc(n2)CCO1 [Example 134, 8,14-dioxa-4-thia-10,19,20,23-tetraazatetracyclo[13.5.2.1^2,5.0^18,21]tricosa-1(20),2,5(23),15,17,21-hexaen-9-one]	< 10
CCC1CCOc2ccc3[nH]nc(c3c2)-c2cccc(c2)COC(=O)N1 (stereo not shown) [Example 87, 11-ethyl-8,14-dioxa-10,19,20-triazatetracyclo[13.5.2.1^2,6.0^18,21]tricosa-1(20),2(23),3,5,15(22),16,18(21)-heptaen-9-one]	< 10
C[C@H]1OC(=O)NCCCOc2ccc3[nH]nc(c3c2)-c2cccc1c2 [Example 68, (7R)-7-methyl-8,14-dioxa-10,19,20-triazatetracyclo[13.5.2.1^2,6.0^18,21]tricosa-1(20),2(23),3,5,15(22),16,18(21)-heptaen-9-one]	< 10
C[C@@H]1CCNC(=O)OCc2cc(ccn2)-c2n[nH]c3ccc(cc23)O1 [Example 117, (13R)-13-methyl-8,14-dioxa-5,10,19,20-tetraazatetracyclo[13.5.2.1^2,6.0^18,21]tricosa-1(20),2,4,6(23),15,17,21-heptaen-9-one]	< 10
O=C1NCCCOc2ccc3[nH]nc(c3c2)-c2ccn(c2)CCO1 [Example 99, 8,14-dioxa-5,10,19,20-tetraazatetracyclo[13.5.2.1^2,5.0^18,21]tricosa-1(20),2(23),3,15(22),16,18(21)-hexaen-9-one]	< 10
O=C1NCCCOc2ccc3[nH]nc(c3c2)-c2cc(cc(N3CCOCC3)c2)CO1 [Example 16, 4-(morpholin-4-yl)-8,14-dioxa-10,19,20-triazatetracyclo[13.5.2.1^2,6.0^18,21]tricosa-1(20),2,4,6(23),15,17,21-heptaen-9-one]	< 10
C[C@@H]1CN(c2cc3cc(c2)-c2n[nH]c4ccc(cc24)OCCCNC(=O)OC3)C[C@H](C)O1 [Example 17, 4-[(2R,6S)-2,6-dimethylmorpholin-4-yl]-8,14-dioxa-10,19,20-triazatetra cyclo[13.5.2.1^2,6.0^18,21]tricosa-1(20),2,4,6(23),15,17,21-heptaen-9-one]	< 10
C[C@@H]1CCNC(=O)O[C@H](C)c2cccc(n2)-c2n[nH]c3ccc(cc23)O1 [Example 136, (7R,13R)-7,13-dimethyl-8,14-dioxa-10,19,20,23-tetraazatetracyclo[13.5.2.1^2,6.0^18,21]tricosa-1(20),2,4,6(23),15,17,21-heptaen-9-one]	< 10

Reference: patent US20230357269A1 (LES LABORATOIRES SERVIER, priority 2020, published 2023)
